{"source": "patent US4672107A", "about": "“Cell growth inhibitor and method” (Inbex, Inc., priority 1985, dated 1987)", "origin": "cited, not measured here", "system": "human embryonic palatal mesenchymal cells", "settings": "Yoneda and Pratt, Science 1981", "data": [{"substance": "Epidermal Growth Factor (NSDSECPLSHDGYCLHDGVCMYIEALDKYACNCVVGYIGERCQYRDLKWWELR; Epidermal growth factor; UniProt P01133 971-1023, looked up) [Epidermal Growth Factor (EGF)]", "values": [{"measurement": "stimulation of incorporation of 3[H]-thymidine into newly synthesized DNA", "result": "a little more than twofold"}]}]}
